One may read the IC50 as the concentration at which inhibition is half-maximal.

Molecules are shown by their SMILES. Like-named read-outs stand apart in the source and are kept apart here.

This assay deals with hROMK1 (Kir1.1) (Homo sapiens (Human), UniProt P48048). Briefly: ^86Rb^+ Efflux Assay. It is filed as cell-based. The settings on record: CHO-DHFR- cells stably expressing hROMK1 (Kir1.1).
The mark [1] stands for this setting: value in parentheses at the end of each Example, read-out: IC50 in the ^86Rb^+ Efflux Assay.
Setting [2] is: Table 1, read-out: ^86Rb^+ Efflux Assay IC50.

hROMK1 (Kir1.1), sequence (P48048 whole entry): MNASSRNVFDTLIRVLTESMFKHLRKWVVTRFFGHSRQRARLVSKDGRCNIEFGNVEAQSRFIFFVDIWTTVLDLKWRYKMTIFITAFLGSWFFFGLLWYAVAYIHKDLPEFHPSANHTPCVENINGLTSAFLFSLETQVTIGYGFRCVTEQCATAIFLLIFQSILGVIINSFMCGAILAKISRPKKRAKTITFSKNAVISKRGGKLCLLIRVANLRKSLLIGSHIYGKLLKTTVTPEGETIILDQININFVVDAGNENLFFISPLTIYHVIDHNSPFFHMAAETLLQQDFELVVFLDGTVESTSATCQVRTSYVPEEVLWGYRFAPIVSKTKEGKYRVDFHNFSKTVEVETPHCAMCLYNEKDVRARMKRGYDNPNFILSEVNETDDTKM

In the case of `O=[N+]([O-])c1ccc(CCN2CCN(CCc3ccc([N+](=O)[O-])cn3)CC2)cc1` [Example 2, 1-[2-(4-Nitrophenyl)ethyl]-4-[2-(5-nitropyridin-2-yl)ethyl]piperazine], under setting [1], the IC50 was 280 nM. The same measure, in the same setting: to `N#Cc1ccc2c(c1)CCC(N1CCN(CCc3ccc([N+](=O)[O-])cc3)CC1)C2` (centres unmarked) [Example 3, 6-{4-[2-(4-Nitrophenyl)ethyl]piperazin-1yl}-5,6,7,8-tetrahydronaphthalene-2-carbonitrile] belongs 50 nM. On to `O=[N+]([O-])c1ccc(CCN2CCN(CCc3ccc([N+](=O)[O-])cc3)C(CF)C2)cc1` (centres unmarked) [Example 5, 2-(Fluoromethyl)-1,4-bis[2-(4-nitrophenyl)ethyl]piperazine], for which the IC50 under setting [1] amounted to 180 nM.

As for `COC(=O)[C@H](Cc1ccc([N+](=O)[O-])cc1)N1CCN(CCc2ccc([N+](=O)[O-])cc2)CC1` [Example 8, Methyl(2S)-3-(4-nitrophenyl)-2-{4-[2-(4-nitrophenyl)ethyl]piperazin-1-yl}propanoate], the concentration for half-maximal inhibition (IC50) under setting [1] amounted to 510 nM.

In the case of `CC1(C)CN(CCc2ccc([N+](=O)[O-])cc2)CCN1CCc1ccc([N+](=O)[O-])cc1` [Example 9, 2,2-Dimethyl-1,4-bis[2-(4-nitrophenyl)ethyl]piperazine], the IC50 under setting [1] came to 210 nM and the IC50 under setting [2] is 210 nM. On to `O=[N+]([O-])c1ccc(CCN2C[C@@H]3C[C@H]2CN3CCc2ccc([N+](=O)[O-])cc2)cc1` [Example 10, (1S,4S)-2,5-Bis[2-(4-nitrophenyl)ethyl]-2,5-diazabicyclo[2.2.1]heptane], for which the IC50 runs as follows: under setting [1], 110 nM; under setting [2], 110 nM. For the molecule `O=[N+]([O-])c1ccc(CCN2CCN(CCc3ccc([N+](=O)[O-])cc3)C(C3CC3)C2)cc1` (centres unmarked) [Example 11, 2-Cyclopropyl-1,4-bis[2-(4-nitrophenyl)ethyl]piperazine], the IC50 under setting [1] came out at 860 nM. Regarding `O=[N+]([O-])c1ccc(CCN2CCN(CCc3ccc([N+](=O)[O-])cc3)C(C(F)F)C2)cc1` (centres unmarked) [Example 12, 2-(Difluoromethyl)-1,4-bis[2-(4-nitrophenyl)ethyl]piperazine], the IC50 under setting [1] is 440 nM. For `O=[N+]([O-])c1ccc(CCN2CCN(CCc3ccc([N+](=O)[O-])cc3)C(CO)C2)cc1` (centres unmarked) [Example 13, {1,4-Bis[2-(4-nitrophenyl)ethyl]piperazin-2-yl}methanol], the half-maximal inhibitory concentration (IC50) under setting [1] worked out at 260 nM. For `O=[N+]([O-])c1ccc(CCN2CCN(CCc3ccc([N+](=O)[O-])cc3C(F)(F)F)CC2)cc1` [Example 15, 1-[2-(4-Nitrophenyl)ethyl]-4-{2-[4-nitro-2-(trifluoromethyl)phenyl]ethyl}piperazine], under setting [1], the IC50 turned out to be 440 nM. For the molecule `O=[N+]([O-])c1ccc(CCN2CC3CCC(C2)N3CCc2ccc([N+](=O)[O-])cc2)cc1` [Example 16, 3,8-Bis-[2-(4-nitrophenyl)ethyl]-3,8-diazabicyclo[3.2.1]octane], the IC50 under setting [1] was 190 nM. As to `CC(Cc1ccc([N+](=O)[O-])cc1)N1CCN(C(C)Cc2ccc([N+](=O)[O-])cc2)CC1` (centres unmarked) [Example 19, 1,4-Bis[1-methyl-2-(4-nitrophenyl)ethyl]piperazine], under setting [1], the IC50 stood at 330 nM. In the case of `O=[N+]([O-])c1ccc(CCN2CC3CCC2CN3CCc2ccc([N+](=O)[O-])cc2)cc1` [Example 20, 2,5-Bis[2-(4-nitrophenyl)ethyl]-2,5-diazabicyclo[2.2.2]octane], the IC50 under setting [1] was found to be 210 nM.

With `COC(=O)CC1CN(CCc2ccc([N+](=O)[O-])cc2)CCN1CCc1ccc([N+](=O)[O-])cc1` (centres unmarked) [Example 21, Methyl{1,4-bis[2-(4-nitrophenyl)ethyl]piperazin-2-yl}acetate], the IC50 under setting [1] amounted to 390 nM. As for `COc1cc(CCN2CCN(CCc3ccc([N+](=O)[O-])cc3)CC2)ccc1C#N` [Example 22, 2-Methoxy-4-(2-{4-[2-(4-nitrophenyl)ethyl]piperazin-1-yl}ethyl)benzonitrile], the IC50 under setting [1] worked out at 52 nM. As for `Cc1cc(C#N)ccc1CCN1CCN(CCc2ccc([N+](=O)[O-])cc2)CC1` [Example 23, 3-Methyl-4-(2-{4-[2-(4-nitrophenyl)ethyl]piperazin-1-yl}ethyl)benzonitrile], the IC50 under setting [1] is 62 nM. Still for that read-out and setting: to `Cc1cc(CCN2CCN(CCc3ccc([N+](=O)[O-])cc3)CC2)ccc1C#N` [Example 24, 2-Methyl-4-(2-{4-[2-(4-nitrophenyl)ethyl]piperazin-1-yl}ethyl)benzonitrile] belongs 190 nM; to `N#Cc1ccc2c(c1)CC[C@H](N1CCN(CCc3ccc([N+](=O)[O-])cc3)CC1)C2` [Example 25, (6S)-6-{4-[2-(4-Nitrophenyl)ethyl]piperazin-1-yl}-5,6,7,8-tetrahydronaphthalene-2-carbonitrile], 83 nM.

Consider `N#Cc1ccc2c(c1)CC[C@@H](N1CCN(CCc3ccc([N+](=O)[O-])cc3)CC1)C2` [Example 26, (6R)-6-{4-[2-(4-Nitrophenyl)ethyl]piperazin-1-yl}-5,6,7,8-tetrahydronaphthalene-2-carbonitrile], for which the IC50 under setting [1] amounted to 66 nM and the IC50 under setting [2] amounted to 66 nM.

Regarding `c1cc2nonc2cc1CCN1CCN(C2CCc3cc(-n4cnnn4)ccc3C2)CC1` (centres unmarked) [Example 27, 5-(2-{4-[6-(1H-Tetrazol-1-yl)-1,2,3,4-tetrahydronaphthalen-2-yl]piperazin-1-yl}ethyl)-2,1,3-benzoxadiazole], the IC50 under setting [1] was determined as 980 nM.

In the case of `N#Cc1c(F)cc(CCN2CCN(CCc3ccc([N+](=O)[O-])cc3)CC2)cc1F` [Example 28, 2,6-Difluoro-4-(2-{4-[2-(4-nitrophenyl)ethyl]piperazin-1-yl}ethyl)benzonitrile], under setting [1], the IC50 came to 160 nM.

Regarding `N#Cc1ccc2c(c1)CC(N1CCN(CCc3ccc([N+](=O)[O-])cc3)CC1)C2` (centres unmarked) [Example 29, 2-{4-[2-(4-Nitrophenyl)ethyl]piperazin-1-yl}-2,3-dihydro-1H-indene-5-carbonitrile], under setting [1], the IC50 worked out at 730 nM. In the case of `O=[N+]([O-])c1ccc(CCN2CCN(C3Cc4ccc([N+](=O)[O-])cc4C3)CC2)cc1` (centres unmarked) [Example 30, 1-(5-Nitro-2,3-dihydro-1H-inden-2-yl)-4-[2-(4-nitrophenyl)ethyl]piperazine], the IC50 under setting [1] amounted to 310 nM. As to `COc1cc(C#N)ccc1CCN1CCN(CCc2ccc([N+](=O)[O-])cc2)CC1` [Example 31, 3-Methoxy-4-(2-{4-[2-(4-nitrophenyl)ethyl]piperazin-1-yl}ethyl)benzonitrile], the IC50 under setting [1] was 300 nM.

Turning to `N#Cc1ccc(CCN2CCN(CCc3ccc([N+](=O)[O-])cc3)CC2)cc1F` [Example 32, 2-Fluoro-4-(2-{4-[2-(4-nitrophenyl)ethyl]piperazin-1-yl}ethyl)benzonitrile], the IC50 under setting [1] turned out to be 240 nM.

For `O=C1OCc2cc(CCN3CCN(C4CCc5cc6nonc6cc5C4)CC3)ccc21` (centres unmarked) [Example 33, 5-{2-[4-(5,6,7,8-Tetrahydronaphtho[2,3-c][1,2,5]oxadiazol-6-yl)piperazin-1-yl]ethyl}-2-benzofuran-1(3H)-one], the IC50 under setting [1] came out at 210 nM. As for `N#Cc1cccc2c1CCC2CN1CCN(CCc2ccc3c(c2)COC3=O)CC1` (centres unmarked) [Example 34, 1-((4-(2-(1-Oxo-1,3-dihydroisobenzofuran-5-yl)ethyl)piperazin-1-yl)methyl)-2,3-dihydro-1H-indene-4-carbonitrile], the IC50 under setting [1] was 270 nM. Still for that read-out and setting: to `N#Cc1ccc2c(c1)OCCC2CN1CCN(CCc2ccc3c(c2)COC3=O)CC1` (centres unmarked) [Example 36, 4-({4-[2-(1-Oxo-1,3-dihydro-2-benzofuran-5-yl)ethyl]piperazin-1-yl}methyl)-3,4-dihydro-2H-chromene-7-carbonitrile] belongs 92 nM; to `N#Cc1ccc2c(c1)CCCC2CN1CCN(CCc2ccc3c(c2)COC3=O)CC1` (centres unmarked) [Example 37, 5-({4-[2-(1-Oxo-1,3-dihydro-2-benzofuran-5-yl)ethyl]piperazin-1-yl}methyl)-5,6,7,8-tetrahydronaphalene-2-carbonitrile], 460 nM; to `N#Cc1cc(F)c(CCN2CCN(CCc3ccc4c(c3)COC4=O)CC2)cc1F` [Example 39, 2,5-Difluoro-4-[2-[4-[2-(1-oxo-3H-isobenzofuran-5-yl)ethyl]piperazin-1-yl]ethyl]benzonitrile], 230 nM.

As to `O=C1OCc2cc(CCN3CCN(CCc4ccc(-n5cnnn5)nc4)CC3)ccc21` [Example 42, 5-[2-[4-[2-[6-(Tetrazol-1-yl)-3-pyridyl]ethyl]piperazin-1-yl]ethyl]-3H-isobenzofuran-1-one], under setting [1], the IC50 was 910 nM. On to `Cc1c(CCN2CCN(CCc3ccc(-n4cnnn4)nc3)CC2)ccc2c1COC2=O` [Example 43, 4-Methyl-5-[2-[4-[2-[6-(tetrazol-1-yl)-3-pyridyl]ethyl]piperazin-1-yl]ethyl]-3H-isobenzofuran-1-one], for which the IC50 runs as follows: under setting [1], 610 nM; under setting [2], 620 nM.

`COc1cc(C(C)CN2CCN(CCc3ccc4c(c3)COC4=O)CC2)ccc1C#N` (centres unmarked) [Example 44, 2-Methoxy-4-[1-methyl-2-[4-[2-(1-oxo-3H-isobenzofuran-5-yl)ethyl]piperazin-1-yl]ethyl]benzonitrile]: the IC50 under setting [1] was determined as 280 nM.

Turning to `COc1cc(CC(C)N2CCN(CCc3ccc4c(c3)COC4=O)CC2)ccc1C#N` (centres unmarked) [Example 48, 2-Methoxy-4-[2-[4-[2-(1-oxo-3H-isobenzofuran-5-yl)ethyl]piperazin-1-yl]propyl]benzonitrile], the IC50 under setting [1] came out at 210 nM.

For the molecule `Cc1c(CCN2CCN(CCc3ccc(C#N)c(OC(F)F)c3)CC2)ccc2c1COC2=O` [Example 49, 2-(Difluoromethoxy)-4-[2-[4-[2-(4-methyl-1-oxo-3H-isobenzofuran-5-yl)ethyl]piperazin-1-yl]ethyl]benzonitrile], the IC50 under setting [1] was 160 nM. Turning to `COc1cc(CCN2CCN(CCc3ccc4c(c3)COC4=O)C(C(F)(F)F)C2)ccc1C#N` (centres unmarked) [Example 51, 2-Methoxy-4-(2-{4-[2-(1-oxo-1,3-dihydro-2-benzofuran-5-yl)ethyl]-3-(trifluoromethyl)piperazin-1-yl}ethyl)benzonitrile], the IC50 under setting [1] turned out to be 650 nM. Still for that read-out and setting: in the case of `COc1cc(CCN2CCN(CCc3ccc4c(c3)COC4=O)CC2)c(F)cc1C#N` [Example 52, 5-Fluoro-2-methoxy-4-(2-{4-[2-(1-oxo-1,3-dihydro-2-benzofuran-5-yl)ethyl]piperazin-1-yl}ethyl)benzonitrile] it was 68 nM.

The values above are taken from US9073882B2, “Inhibitors of the renal outer medullary potassium channel” (Merck Sharp & Dohme Corp., priority 2010, dated 2015).
